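Growth conditions: 96-well plates. Treatment: test compound, 48 hours, 5 concentrations. Analysis: linear interpolation between bracketing concentrations; unreached endpoints set to highest concentration. TGI denotes the concentration required for complete inhibition of growth.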
How the values were obtained:
Experiment in all cases: DTP human tumour cell line panel, 48 h
MOLT-4 leukemia = system: MOLT-4 leukemia
A498 renal = system: A498 renal
BT-549 breast = system: BT-549 breast
COLO 205 colon = system: COLO 205 colon
SF-295 CNS = system: SF-295 CNS
OVCAR-8 ovarian = system: OVCAR-8 ovarian
HCT-15 colon = system: HCT-15 colon
786-0 renal = system: 786-0 renal
SNB-19 CNS = system: SNB-19 CNS
IGROV1 ovarian = system: IGROV1 ovarian
SW-620 colon = system: SW-620 colon
SK-OV-3 ovarian = system: SK-OV-3 ovarian
HOP-62 NSCLC = system: HOP-62 NSCLC
SF-268 CNS = system: SF-268 CNS
HOP-92 NSCLC = system: HOP-92 NSCLC
MDA-N = system: MDA-N
UO-31 renal = system: UO-31 renal
DU-145 prostate = system: DU-145 prostate
SF-539 CNS = system: SF-539 CNS
OVCAR-5 ovarian = system: OVCAR-5 ovarian
MDA-MB-435 = system: MDA-MB-435
U251 CNS = system: U251 CNS
M14 melanoma = system: M14 melanoma
NCI-H226 lung = system: NCI-H226 lung
K-562 leukemia = system: K-562 leukemia
UACC-62 melanoma = system: UACC-62 melanoma
UACC-257 melanoma = system: UACC-257 melanoma
OVCAR-3 ovarian = system: OVCAR-3 ovarian
HCT-116 colon = system: HCT-116 colon
NCI-H522 lung = system: NCI-H522 lung
CAKI-1 renal = system: CAKI-1 renal
MALME-3M melanoma = system: MALME-3M melanoma
NCI-H460 lung = system: NCI-H460 lung
KM12 colon = system: KM12 colon
MDA-MB-231 breast = system: MDA-MB-231 breast
CCRF-CEM leukemia = system: CCRF-CEM leukemia
TK-10 renal = system: TK-10 renal
ACHN renal = system: ACHN renal
NCI-H23 lung = system: NCI-H23 lung
SN12C renal = system: SN12C renal
SR leukemia = system: SR leukemia
HT29 colon = system: HT29 colon
RXF 393 renal = system: RXF 393 renal
MCF7 breast = system: MCF7 breast
NCI/ADR-RES ovarian = system: NCI/ADR-RES ovarian
PC-3 prostate = system: PC-3 prostate
HCC-2998 colon = system: HCC-2998 colon
SK-MEL-28 melanoma = system: SK-MEL-28 melanoma
OVCAR-4 ovarian = system: OVCAR-4 ovarian
T-47D breast = system: T-47D breast
A549 NSCLC = system: A549 NSCLC

Measured: TGI

Cc1ccc2c(n1)NC(=O)C(Cc1ccccc1)(N=[N+]=[N-])C2=O (stereo unspecified)
> 100 µM: all assays above

Reference: PubChem BioAssay (NCI)
